Measurements taken from PubChem BioAssay AID328 (DTP/NCI, 2004).
“And” between values parts separate entries of the source, which are not always exact repeats. Equal values may be shown once. Toxic doses and inconclusive results are not listed.

Test system: BDF1 mice, P388 leukemia ip, median survival T/C
Assay: NCI In Vivo Anticancer Drug Screen. Data for tumor model P388 Leukemia (intraperitoneal) in B6D2F1 (BDF1) mice
Details: endpoint: median survival time, higher = longer survival
Method in brief: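 Vehicle-dosed animals serve as the reference; survival of compound-dosed, tumour-implanted mice is divided by it.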

[1] = dose: 50.0 mg/kg/injection, schedule: Q01DX009 (ip), vehicle: saline with Tween-80
[2] = dose: 100.0 mg/kg/injection, schedule: Q01DX009 (ip), vehicle: saline with Tween-80
[3] = dose: 200.0 mg/kg/injection, schedule: Q01DX009 (ip), vehicle: saline with Tween-80
[4] = dose: 50.0 mg/kg/injection, schedule: Q01DX005 (ip), vehicle: saline with Tween-80
[5] = dose: 100.0 mg/kg/injection, schedule: Q01DX005 (ip), vehicle: saline with Tween-80
[6] = dose: 200.0 mg/kg/injection, schedule: Q01DX005 (ip), vehicle: saline with Tween-80
[7] = dose: 12.5 mg/kg/injection, schedule: Q01DX009 (ip), vehicle: saline with Tween-80
[8] = dose: 12.5 mg/kg/injection, schedule: Q04DX003 (ip), vehicle: saline with Tween-80
[9] = dose: 25.0 mg/kg/injection, schedule: Q01DX009 (ip), vehicle: saline with Tween-80

Compound: CCOC(=O)c1c[nH]c2cc(C(F)(F)F)ccc2c1=O
- T/C (dose: 6.25 mg/kg/injection, schedule: Q01DX009 (ip), vehicle: gum acacia): 116 % of control
- T/C (dose: 12.5 mg/kg/injection, schedule: Q01DX009 (ip), vehicle: gum acacia): 100 % of control
- T/C (dose: 25.0 mg/kg/injection, schedule: Q01DX009 (ip), vehicle: gum acacia): 98 % of control
- T/C (dose: 25.0 mg/kg/injection, schedule: Q04DX003 (ip), vehicle: gum acacia): 91 % of control
- T/C (dose: 100.0 mg/kg/injection, schedule: Q04DX003 (ip), vehicle: gum acacia): 87 % of control

Compound: Cc1cc(O)c(C(c2ccc(Cl)cc2)c2c(O)cc(C)[nH]c2=O)c(=O)[nH]1
- T/C [1]: 108 % of control
- T/C [2]: 108 % of control
- T/C [3]: 105 % of control

Compound: Clc1ccc(-c2cc(=[N+]3CCC4(CC3)SSC3(CC[N+](=c5cc(-c6ccc(Cl)cc6)ss5)CC3)S4)ss2)cc1 (configuration not stated)
- T/C (dose: 25.0 mg/kg/injection, schedule: Q01DX009 (ip), vehicle: water): 110 % of control
- T/C (dose: 25.0 mg/kg/injection, schedule: Q04DX003 (ip), vehicle: water): 94 % of control
- T/C (dose: 50.0 mg/kg/injection, schedule: Q01DX009 (ip), vehicle: water): 121 % of control
- T/C (dose: 50.0 mg/kg/injection, schedule: Q04DX003 (ip), vehicle: water): 101 % of control
- T/C (dose: 100.0 mg/kg/injection, schedule: Q04DX003 (ip), vehicle: water): 92 % of control
- T/C (dose: 200.0 mg/kg/injection, schedule: Q01DX009 (ip), vehicle: water): 121 % of control
- T/C (dose: 200.0 mg/kg/injection, schedule: Q04DX003 (ip), vehicle: water): 97 % of control
- T/C (dose: 400.0 mg/kg/injection, schedule: Q01DX009 (ip), vehicle: water): 121 % of control
- T/C (dose: 400.0 mg/kg/injection, schedule: Q04DX003 (ip), vehicle: water): 98 % of control

Compound: CC1(C)OC2(C)CCC1C(O)C2N1CCCCC1 (configuration not stated)
- T/C [4]: 108 % of control
- T/C [5]: 95 % of control
- T/C [6]: 106 % of control

Compound: CCCCOCN(COCCCC)C(C)Cc1ccccc1 (configuration not stated)
- T/C [1]: 122 % of control

Compound: CC(CCCC1SCC2NC(=O)NC21)C(=O)O (configuration not stated)
- T/C (dose: 100.0 mg/kg/injection, schedule: Q01DX009 (ip), vehicle: Klucel (hydroxypropylcellulose) (HPC)): 102 % of control
- T/C (dose: 200.0 mg/kg/injection, schedule: Q01DX009 (ip), vehicle: Klucel (hydroxypropylcellulose) (HPC)): 91 % of control
- T/C (dose: 400.0 mg/kg/injection, schedule: Q01DX009 (ip), vehicle: Klucel (hydroxypropylcellulose) (HPC)): 98 % of control

Compound: O=C(O)c1cc(Cl)c(C(=O)O)cc1Cl
- T/C (dose: 75.0 mg/kg/injection, schedule: Q01DX009 (ip), vehicle: saline with Tween-80): 116 % of control
- T/C (dose: 150.0 mg/kg/injection, schedule: Q01DX009 (ip), vehicle: saline with Tween-80): 104 % of control
- T/C (dose: 300.0 mg/kg/injection, schedule: Q01DX009 (ip), vehicle: saline with Tween-80): 108 % of control

Compound: O=C(NO)c1cccnc1
- T/C (dose: 300.0 mg/kg/injection, schedule: Q01DX010 (ip), vehicle: water): 119 % of control
- T/C (dose: 400.0 mg/kg/injection, schedule: Q01DX010 (ip), vehicle: water): 109 % of control and 118 % of control
- T/C (dose: 600.0 mg/kg/injection, schedule: Q01DX010 (ip), vehicle: water): 150 % of control and 154 % of control

Compound: O=C(O)c1ccc(-c2ccccc2)cc1
- T/C [1]: 100 % of control
- T/C [2]: 104 % of control
- T/C (dose: 100.0 mg/kg/injection, schedule: Q04DX003 (ip), vehicle: saline with Tween-80): 104 % of control
- T/C [3]: 95 % of control
- T/C (dose: 200.0 mg/kg/injection, schedule: Q04DX003 (ip), vehicle: saline with Tween-80): 104 % of control

Compound: O=C1CSC(C2CCCCC2)N1c1nccs1 (configuration not stated)
- T/C [1]: 110 % of control
- T/C [2]: 112 % of control
- T/C [3]: 110 % of control

Compound: Nc1ccc(/C=C/c2ccnc3ccccc23)cc1
- T/C (dose: 3.13 mg/kg/injection, schedule: Q04DX003 (ip), vehicle: saline with Tween-80): 109 % of control
- T/C (dose: 6.25 mg/kg/injection, schedule: Q04DX003 (ip), vehicle: saline with Tween-80): 109 % of control
- T/C [7]: 112 % of control
- T/C [8]: 109 % of control
- T/C [9]: 91 % of control

Compound: COc1ccc(C2C(C#N)=C(N)NC(=O)C2C(N)=O)cc1 (configuration not stated)
- T/C [4]: 92 % of control
- T/C [5]: 89 % of control
- T/C [6]: 92 % of control

Compound: CC1(C)CCC23CCC4(C)C(CCC5C6(C)CCC(O)C(C)(C)C6CCC54C)C2C1OC3=O (configuration not stated)
- T/C (dose: 10.0 mg/kg/injection, schedule: Q01DX009 (ip), vehicle: Klucel (hydroxypropylcellulose) (HPC)): 105 % of control
- T/C (dose: 20.0 mg/kg/injection, schedule: Q01DX009 (ip), vehicle: Klucel (hydroxypropylcellulose) (HPC)): 119 % of control
- T/C (dose: 40.0 mg/kg/injection, schedule: Q01DX009 (ip), vehicle: Klucel (hydroxypropylcellulose) (HPC)): 105 % of control

Compound: COC1=C(N=[N+]=[N-])C(=O)C(OC)=C(N=[N+]=[N-])C1=O
- T/C (dose: 10.0 mg/kg/injection, schedule: Q04DX003 (ip), vehicle: saline): 100 % of control
- T/C (dose: 20.0 mg/kg/injection, schedule: Q04DX003 (ip), vehicle: saline): 100 % of control
- T/C (dose: 22.5 mg/kg/injection, schedule: Q01DX009 (ip), vehicle: saline): 114 % of control
- T/C (dose: 40.0 mg/kg/injection, schedule: Q04DX003 (ip), vehicle: saline): 108 % of control
- T/C (dose: 45.0 mg/kg/injection, schedule: Q01DX009 (ip), vehicle: saline): 123 % of control
- T/C (dose: 90.0 mg/kg/injection, schedule: Q01DX009 (ip), vehicle: saline): 114 % of control
- T/C (dose: 90.0 mg/kg/injection, schedule: Q04DX003 (ip), vehicle: saline): 122 % of control

Compound: CCN(CC)Cc1cc(Nc2ccnc3cc(Cl)ccc23)cc(-c2ccc(Cl)cc2)c1O
- T/C [1]: 110 % of control
- T/C [2]: 102 % of control
- T/C [3]: 102 % of control

Compound: S=P(Oc1ccccc1)(N1CC1)N1CC1
- T/C (dose: 100.0 mg/kg/injection, schedule: Q01DX007 (ip), vehicle: DMSO): 88 % of control
- T/C (dose: 100.0 mg/kg/injection, schedule: Q04DX003 (ip), vehicle: Klucel (hydroxypropylcellulose) (HPC)): 100 % of control
- T/C (dose: 200.0 mg/kg/injection, schedule: Q04DX003 (ip), vehicle: Klucel (hydroxypropylcellulose) (HPC)): 108 % of control
- T/C (dose: 400.0 mg/kg/injection, schedule: Q04DX003 (ip), vehicle: Klucel (hydroxypropylcellulose) (HPC)): 100 % of control

Compound: CCCCNc1c(OC)ccc2c(C)c3[n+](cc12)CCc1cc(OC)c(OC)cc1-3
- T/C (dose: 1.56 mg/kg/injection, schedule: Q04DX003 (ip), vehicle: water): 103 % of control
- T/C (dose: 3.13 mg/kg/injection, schedule: Q04DX003 (ip), vehicle: water): 103 % of control

Compound: Cc1cc(CC(Cl)(C(F)(F)F)C(F)(F)F)cc(CC(Cl)(C(F)(F)F)C(F)(F)F)n1
- T/C (dose: 6.25 mg/kg/injection, schedule: Q01DX009 (ip), vehicle: saline with Tween-80): 110 % of control
- T/C [7]: 105 % of control
- T/C [8]: 90 % of control
- T/C [9]: 110 % of control
- T/C (dose: 25.0 mg/kg/injection, schedule: Q04DX003 (ip), vehicle: saline with Tween-80): 90 % of control
- T/C (dose: 50.0 mg/kg/injection, schedule: Q04DX003 (ip), vehicle: saline with Tween-80): 113 % of control

Compound: CSc1ccc(NC(=O)Nc2ccc(N=Nc3ccccc3)cc2)cc1
- T/C (dose: 42.5 mg/kg/injection, schedule: Q01DX009 (ip), vehicle: Klucel (hydroxypropylcellulose) (HPC)): 100 % of control
- T/C (dose: 85.0 mg/kg/injection, schedule: Q01DX009 (ip), vehicle: Klucel (hydroxypropylcellulose) (HPC)): 100 % of control
- T/C (dose: 170.0 mg/kg/injection, schedule: Q01DX009 (ip), vehicle: Klucel (hydroxypropylcellulose) (HPC)): 100 % of control

Compound: O=[N+]([O-])CC(OCCO)C(Cl)(Cl)Cl (configuration not stated)
- T/C (dose: 3.12 mg/kg/injection, schedule: Q04DX003 (ip), vehicle: saline): 95 % of control
- T/C (dose: 6.25 mg/kg/injection, schedule: Q01DX009 (ip), vehicle: acetone): 110 % of control
- T/C (dose: 6.25 mg/kg/injection, schedule: Q04DX003 (ip), vehicle: saline): 100 % of control
- T/C (dose: 12.5 mg/kg/injection, schedule: Q01DX009 (ip), vehicle: acetone): 89 % of control
- T/C (dose: 12.5 mg/kg/injection, schedule: Q04DX003 (ip), vehicle: saline): 95 % of control
- T/C (dose: 18.0 mg/kg/injection, schedule: Q04DX003 (ip), vehicle: saline with Tween-80): 118 % of control
- T/C (dose: 28.0 mg/kg/injection, schedule: Q04DX003 (ip), vehicle: saline with Tween-80): 90 % of control
- T/C (dose: 40.0 mg/kg/injection, schedule: Q04DX003 (ip), vehicle: saline with Tween-80): 86 % of control
